The numbers were not newly measured in the CATMoS acute toxicity set (Mansouri et al. 2021), which cites them from elsewhere.

Values joined by “and” are separate entries in the source; they are usually repeats but may differ in a detail not shown here. Equal entries are not always repeated.

The data set can be described thus: rat acute oral toxicity. To be noted: in vivo.
`CCN(CC)CCOC(=O)C(O)(c1ccccc1)c1ccccc1`: the LD50 – broadly, the dose expected to kill half of the subjects tested – was 184 mg/kg.
Turning to `CC(C)c1ccc(C#N)cc1`, the LD50 was 3900 mg/kg.
For the molecule `Nc1cccc2c(N)cccc12`, the median lethal dose (LD50) was 634 mg/kg.
For the molecule `CN=C(O)O/N=C1/SCOC1C` (configuration not stated), the LD50 is 12 mg/kg.
On to `C/C=C1/C[C@@H](C)[C@](O)(CO)C(=O)OCC2=CCN3CC[C@@H](OC1=O)[C@@H]23`, for which the LD50 was 34 mg/kg.
As for `Nc1cc(Cl)c(N)c(Cl)c1`, the LD50 was 700 mg/kg.
Consider `CCOP(=S)(SC(C)CC)N(C=O)CC` (configuration not stated), for which the median lethal dose (LD50) is 95.9 mg/kg.
Take `Cc1ccccc1Oc1cccnn1`: the 50% lethal dose (LD50) is 3090 mg/kg.
With `O=C(O)C=Cc1ccc([N+](=O)[O-])o1`, the 50% lethal dose (LD50) was 1220 mg/kg.
On to `CN1CCC(=C2c3ccccc3Sc3ccccc32)CC1`, for which the median lethal dose (LD50) is 1190 mg/kg and 550 mg/kg.
On to `CNC(=O)ON=C1SCC(=O)NC1C` (configuration not stated), for which the LD50 is 5.66 mg/kg.
In the case of `[2H]C([2H])([2H])N(COC(C)=O)N=O`, the LD50 is 120 mg/kg.
As for `C=C(C)C(=O)OCCC#N`, the LD50 was 7330 mg/kg.
For `O=C(Cl)c1cccc(C(=O)Cl)c1`, the LD50 is 2200 mg/kg.
Turning to `OC(CNc1ccccn1)c1ccccc1` (configuration not stated), the LD50 is 756 mg/kg.
On to `Cc1ncc([N+](=O)[O-])n1CC(O)CCl` (configuration not stated), for which the 50% lethal dose (LD50) was 1780 mg/kg.
As to `CC(CCCCCCCCCCCCCCCCC(=O)O)N(C)Cc1cc(C(C)N(C)CCCCCCCCCCCCCCCCCC(=O)O)cc(C(C)N(C)CCCCCCCCCCCCCCCCCC(=O)O)c1O` (configuration not stated), the LD50 was 11800 mg/kg.
Take `CCN(C)N=O`: the LD50 is 90 mg/kg.
As to `NC(=O)ON=C1CSCCS1`, the LD50 is 52 mg/kg.
Turning to `CN1CC(CC#N)CC2c3cccc4[nH]c(Cl)c(c34)CC21` (configuration not stated), the LD50 is 290 mg/kg.
Turning to `C=C(Cl)C(=O)Nc1ccc(OC)cc1`, the LD50 is 82 mg/kg.
Regarding `CNC(=O)ON=C1CSC(C)(C)S1`, the LD50 was 2 mg/kg.
Regarding `O=C(COc1ccc(Cl)cc1Cl)OCC=CCCl`, the 50% lethal dose (LD50) was 547 mg/kg.
As for `O=C1CC[C@@]2(O)[C@H]3Cc4ccc(O)c5c4[C@@]2(CCN3CC2CC2)[C@H]1O5`, the LD50 is 1450 mg/kg.
As for `CC(c1ccc(OC#N)cc1)c1ccc(OC#N)cc1`, the LD50 was 1000 mg/kg.
As for `O=C(O)C(c1ccc(Cl)cc1)c1ccc(Cl)cc1`, the LD50 is 600 mg/kg and 740 mg/kg.
Turning to `CCOCCC(=O)O`, the LD50 was 4800 mg/kg.
`CCCCCCCCCCCO`: the median lethal dose (LD50) was 3000 mg/kg.
For `ClCC1C(CCl)C2(Cl)C(Cl)=C(Cl)C1(Cl)C2(Cl)Cl` (configuration not stated), the median lethal dose (LD50) was 200 mg/kg.
For the molecule `O=C(O)c1ccc2c(c1)CCC(Cn1ccnc1)C2` (configuration not stated), the LD50 was 1990 mg/kg.
For `CN(C)c1ccc(N=Nc2ccc(S(=O)(=O)O)cc2)cc1`, the 50% lethal dose (LD50) is 60 mg/kg.
Turning to `CCN(CC)CCC1(c2ccccc2)C(=O)Oc2ccccc21` (configuration not stated), the LD50 is 600 mg/kg.
Turning to `C(=CNc1ccccc1)C=Nc1ccccc1`, the LD50 is 1130 mg/kg.
On to `CCCCCC(C)NC` (configuration not stated), for which the LD50 is 320 mg/kg.
For the molecule `CCCCCCCCCCCC[N+](C)(C)Cc1ccc(CC)cc1`, the LD50 is 700 mg/kg.
For the molecule `CCCC(C)C(=O)Nc1ccc(C)c(Cl)c1` (configuration not stated), the 50% lethal dose (LD50) is 5100 mg/kg.
`C[N+]1(C)[C@@H]2CC[C@H]1C[C@@H](OC(=O)C(O)c1ccccc1)C2` (some centres not stated): the LD50 was 1200 mg/kg.
`Cc1cc(C)cc(C(=O)Cl)c1`: the LD50 was 3160 mg/kg.
Regarding `C1C2OC2C2C1C1CC2C2OC12` (configuration not stated), the LD50 was 210 mg/kg.
On to `Fc1c(Cl)c(Br)c2[nH]c(C(F)(F)F)nc2c1Cl`, for which the LD50 was 6.26 mg/kg.
With `O=C(OCCOc1ccc(Cl)cc1Cl)c1ccccc1`, the 50% lethal dose (LD50) was 1700 mg/kg.
Turning to `ClC1=C(Cl)C2(Cl)C3C(Cl)C(Cl)CC3C1(Cl)C2(Cl)Cl` (configuration not stated), the 50% lethal dose (LD50) is 283 mg/kg.
`C=CC1(C)OC(=O)N(c2cc(Cl)cc(Cl)c2)C1=O` (configuration not stated): the LD50 was 10000 mg/kg.
With `CCC(=O)O[C@](Cc1ccccc1)(c1ccccc1)[C@H](C)CN(C)C`, the LD50 is 84 mg/kg.
Take `CON=CC1=CCCNC1`: the LD50 was 12 mg/kg.
As for `CN(C)C=CC#N`, the LD50 was 946 mg/kg.
With `CC(=O)N1CCOCC1`, the LD50 is 6130 mg/kg.
`BrCC=CCBr`: the median lethal dose (LD50) was 75 mg/kg.
Turning to `CC[C@H]1CN2CCc3cc(OC)c(OC)cc3[C@@H]2C[C@@H]1C[C@H]1NCCc2cc(OC)c(OC)cc21`, the LD50 is 0.012 mg/kg.
For the molecule `OCCSSc1c(Cl)c(Cl)c(Cl)c(Cl)c1Cl`, the LD50 is 2860 mg/kg.
As for `O=C(OCCCOCCCOC(=O)c1ccccc1)c1ccccc1`, the median lethal dose (LD50) is 9800 mg/kg.
As for `NN=C(N)N`, the LD50 is 500 mg/kg.
Consider `CC(C)c1cccc(C(C)C)c1O`, for which the LD50 is 500 mg/kg.
Take `CN(C)N=Nc1ccc(-c2ccccc2)cc1`: the 50% lethal dose (LD50) was 347 mg/kg.
Consider `CC(=O)Nc1ccccc1`, for which the LD50 is 800 mg/kg.
Turning to `O=S(=O)(NC(O)=NC1CCCCC1)c1ccc(Cl)cc1`, the median lethal dose (LD50) was 1520 mg/kg.
Regarding `Fc1cc(Br)c2nc(C(F)(F)F)[nH]c2c1`, the LD50 was 5.65 mg/kg.
As for `C/N=N/Nc1ccc(Cl)cc1`, the LD50 was 329 mg/kg.
Turning to `COc1ccc(OC)c(CC(C)N)c1` (racemic), the median lethal dose (LD50) is 171 mg/kg.
With `CCCCCCCC(=O)Oc1ccc(C)cc1`, the LD50 was 1600 mg/kg.
Consider `CCSC(=O)COc1ccc(Cl)cc1C`, for which the LD50 is 790 mg/kg.
Turning to `CCN(CC)CCSC(=O)N(c1ccccc1)c1ccccc1`, the LD50 was 370 mg/kg.
